Structures can show the parent of a compound that is named as a salt.
Test system: HCT116
Details: 72 h
Procedure, shortened: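 For IC50 and maximal efficacy, four-parameter Hill fits were used. Input values were CellTiter-Glo luminescence from HCT116 cells seeded at 250 per well in 1536-well plates, normalized to vehicle (0%) and positive control (-100%). Pattern correction followed normalization.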

| SMILES | IC50 cell viability (ICRF193 0 nM) | IC50 cell viability (ICRF193 200 nM) |
| --- | --- | --- |
| CCCCS(=O)(=O)N[C@@H](Cc1ccc(OCCCCC2CCNCC2)cc1)C(=O)O [Tirofiban hydrochloride monohydrate] | > 45.8 µM | > 45.8 µM |
| NC[C@H]1O[C@H](O[C@H]2[C@H](O)[C@@H](O[C@H]3O[C@H](CO)[C@@H](O)[C@H](N)[C@H]3O)[C@H](N)C[C@@H]2N)[C@H](N)C[C@@H]1O [Tobramycin] | > 45.8 µM | > 45.8 µM |
| CC1=C(/C=C/C(C)=C/C=C/C(C)=C/C(=O)Oc2c(C)c(C)c3c(c2C)CCC(C)(CCCC(C)CCCC(C)CCCC(C)C)O3)C(C)(C)CCC1 (stereo unspecified) [Tocoretinate] | > 45.8 µM | > 45.8 µM |
| CCC1C(C)=NN=C(c2ccc(OC)c(OC)c2)c2cc(OC)c(OC)cc21 (stereo unspecified) [Tofisopam] | > 45.8 µM | > 45.8 µM |
| CC1(C)O[C@@H]2[C@@H](CO[C@@]3(COS(N)(=O)=O)OC(C)(C)O[C@@H]23)O1 [Topiramate] | > 45.8 µM | > 45.8 µM |
| NC1CCN(c2nc3c(cc2F)c(=O)c(C(=O)O)cn3-c2ccc(F)cc2F)C1 (stereo unspecified) [Tosufloxacin toluenesulfonic acid] | > 45.8 µM | > 45.8 µM |
| CC1(C)[C@H](C=C(Cl)Cl)[C@H]1C(=O)OCc1c(F)c(F)cc(F)c1F [Transfluthrin] | > 45.8 µM | > 45.8 µM |
| N[C@@H]1C[C@H]1c1ccccc1 [Tranylcypromine hydrochloride] | > 45.8 µM | > 45.8 µM |
| Cn1c(=O)cc(N2CCC[C@@H](N)C2)n(Cc2cc(F)ccc2C#N)c1=O [Trelagliptin succinate] | > 45.8 µM | > 45.8 µM |
| CC(=O)O[C@H]1CC[C@H]2[C@@H]3CCC4=CC(=O)CCC4=C3C=C[C@]12C [Trenbolone (acetate)] | > 45.8 µM | > 45.8 µM |
| CS(=O)(=O)OC[C@H](O)[C@@H](O)COS(C)(=O)=O [Treosulfan] | > 45.8 µM | > 45.8 µM |
| CCOc1cc(OCC)c(C(=O)CCC(=O)O)cc1OCC [Trepibutone] | > 45.8 µM | > 45.8 µM |
| CC(=O)OCC(COC(C)=O)OC(C)=O [Triacetin] | > 45.8 µM | > 45.8 µM |
| CC1(C)O[C@@H]2C[C@H]3[C@@H]4CCC5=CC(=O)C=C[C@]5(C)[C@@]4(F)[C@@H](O)C[C@]3(C)[C@]2(C(=O)CO)O1 [Triamcinolone acetonide] | > 45.8 µM | > 45.8 µM |
| CC(=O)OCC(=O)[C@@]1(O)[C@H](OC(C)=O)C[C@H]2[C@@H]3CCC4=CC(=O)C=C[C@]4(C)[C@@]3(F)[C@@H](O)C[C@@]21C [Triamcinolone diacetate] | > 45.8 µM | > 45.8 µM |
| CC(C)(C)CC(=O)OCC(=O)[C@@]12OC(C)(C)O[C@@H]1C[C@H]1[C@@H]3CCC4=CC(=O)C=C[C@]4(C)[C@@]3(F)[C@@H](O)C[C@@]12C [Triamcinolone hexacetonide] | > 45.8 µM | > 45.8 µM |
| C[C@]12C=CC(=O)C=C1CC[C@H]1[C@@H]3C[C@@H](O)[C@](O)(C(=O)CO)[C@@]3(C)C[C@H](O)[C@@]12F [Triamcinolone] | > 45.8 µM | > 45.8 µM |

| SMILES | IC50 cell viability (ICRF193 0 nM) | IC50 cell viability (ICRF193 200 nM) |
| --- | --- | --- |
| O=C(Nc1ccc(Br)cc1)c1cc(Br)cc(Br)c1O [Tribromsalan] | > 45.8 µM | > 45.8 µM |
| CCCCCCCC(=O)OCC(COC(=O)CCCCCCC)OC(=O)CCCCCCC [Tricaprylin] | > 45.8 µM | > 45.8 µM |
| COP(=O)(OC)C(O)C(Cl)(Cl)Cl (stereo unspecified) [Trichlorfon] | > 45.8 µM | > 45.8 µM |
| NS(=O)(=O)c1cc2c(cc1Cl)NC(C(Cl)Cl)NS2(=O)=O (stereo unspecified) [Trichlormethiazide] | > 45.8 µM | > 45.8 µM |
| O=C(O)C(Cl)(Cl)Cl [Trichloroacetic acid] | > 45.8 µM | > 45.8 µM |
| OCCN(CCO)CCO [Triethanolamine] | > 45.8 µM | > 45.8 µM |
| OCCOCCOCCO [Triethylene glycol] | > 45.8 µM | > 45.8 µM |
| NCCNCCNCCN [Triethylenetetramine] | > 45.8 µM | > 45.8 µM |
| C[C@]12CC[C@H]3[C@@H](CC[C@@]45O[C@@H]4C(O)=C(C#N)C[C@]35C)[C@@H]1CC[C@@H]2O [Trilostane] | > 45.8 µM | > 45.8 µM |
| COc1ccc(CN2CCNCC2)c(OC)c1OC [Trimetazidine dihydrochloride] | > 45.8 µM | > 45.8 µM |
| CN1C(=O)OC(C)(C)C1=O [Trimethadione] | > 45.8 µM | > 45.8 µM |
| COc1cc(Cc2cnc(N)nc2N)cc(OC)c1OC [Trimethoprim] | > 45.8 µM | > 45.8 µM |
| COc1cc(CC2NCCc3cc(O)c(O)cc32)cc(OC)c1OC (stereo unspecified) [Trimethoquinol] | > 45.8 µM | > 45.8 µM |
| Cc1cc2cc3c(C)cc(=O)oc3c(C)c2o1 [Trioxsalen] | > 45.8 µM | > 45.8 µM |
| NS(=O)(=O)c1cc(C(=O)NN2C[C@@H]3[C@H]4CC[C@H](C4)[C@@H]3C2)ccc1Cl [Tripamide] | > 45.8 µM | > 45.8 µM |
| CC(C)C[C@H](NC(=O)[C@@H](Cc1c[nH]c2ccccc12)NC(=O)[C@H](Cc1ccc(O)cc1)NC(=O)[C@H](CO)NC(=O)[C@H](Cc1c[nH]c2ccccc12)NC(=O)[C@H](Cc1c[nH]cn1)NC(=O)[C@@H]1CCC(=O)N1)C(=O)N[C@@H](CCCNC(=N)N)C(=O)N1CCC[C@H]1C(=O)NCC(N)=O [Triptorelin] | > 45.8 µM | > 45.8 µM |
| C[Si](C)(C)O[Si](C)(C)O[Si](C)(C)C [Trisiloxane, octamethyl-] | > 45.8 µM | > 45.8 µM |

Other lines, results leading:

| IC50 cell viability (ICRF193 0 nM) | IC50 cell viability (ICRF193 200 nM) | SMILES |
| --- | --- | --- |
| > 45.8 µM | > 45.8 µM | Clc1ccc2nsnc2c1NC1=NCCN1 [Tizanidine hydrochloride] |
| > 45.8 µM | > 45.8 µM | COc1ccc(CNCC(O)COc2ccc3[nH]c(=O)ccc3c2)cc1OC (stereo unspecified) [Toborinone] |
| > 45.8 µM | > 45.8 µM | Cc1cccc(C)c1NC(=O)C(C)N (stereo unspecified) [Tocainide hydrochloride] |
| > 45.8 µM | > 45.8 µM | Cc1ccc(C(C)OC(=O)C2(C)CCC(C(=O)O)C2(C)C)cc1 (stereo unspecified) [Tocanfil] |
| > 45.8 µM | > 45.8 µM | CCOC(=O)NNc1nncc2ccccc12 [Todralazine hydrochloride] |
| > 45.8 µM | > 45.8 µM | C[C@@H]1CCN(C(=O)CC#N)C[C@@H]1N(C)c1ncnc2[nH]ccc12 [Tofacitinib] |
| > 45.8 µM | > 45.8 µM | CCc1ccc(Cc2ccc3c(c2)[C@]2(OC3)O[C@H](CO)[C@@H](O)[C@H](O)[C@H]2O)cc1 [Tofogliflozin (hydrate)] |
| > 45.8 µM | > 45.8 µM | Cc1ccc(S(=O)(=O)NC(=O)NN2CCCCCC2)cc1 [Tolazamide] |
| > 45.8 µM | > 45.8 µM | c1ccc(CC2=NCCN2)cc1 [Tolazoline hydrochloride] |
| > 45.8 µM | > 45.8 µM | CCCCNC(=O)NS(=O)(=O)c1ccc(C)cc1 [Tolbutamide] |
| > 45.8 µM | > 45.8 µM | Cc1cccc(N(C)C(=S)Oc2ccc3c(c2)C2CCC3C2)c1 (stereo unspecified) [Tolciclate] |
| > 45.8 µM | > 45.8 µM | Cc1cccc(N(C)C(=S)Oc2ccc3c(c2)CCC3)c1 [Tolindate] |
| > 45.8 µM | > 45.8 µM | Cc1ccc(C(=O)c2ccc(CC(=O)O)n2C)cc1 [Tolmetin sodium dihydrate] |
| > 45.8 µM | > 45.8 µM | Cc1cccc(N(C)C(=S)Oc2ccc3ccccc3c2)c1 [Tolnaftate] |
| > 45.8 µM | > 45.8 µM | Cc1ccc(C(=O)C(C)CN2CCCCC2)cc1 (stereo unspecified) [Tolperisone hydrochloride] |
| > 45.8 µM | > 45.8 µM | Cc1ccc(O)c([C@H](CCN(C(C)C)C(C)C)c2ccccc2)c1 [Tolterodine] |
| > 45.8 µM | > 45.8 µM | Cc1ccccc1C(=O)Nc1ccc(C(=O)N2CCCC(O)c3cc(Cl)ccc32)c(C)c1 (stereo unspecified) [Tolvaptan] |
| > 45.8 µM | > 45.8 µM | CCN(CC)CC(=O)Nc1c(C)cccc1C(=O)OC [Tolycaine] |
| > 45.8 µM | > 45.8 µM | N#Cc1cc(-c2n[nH]c(-c3ccncc3)n2)ccn1 [Topiroxostat] |
| > 45.8 µM | > 45.8 µM | Cc1cccc(Nc2ccncc2S(=O)(=O)NC(=O)NC(C)C)c1 [Torsemide] |
| > 45.8 µM | > 45.8 µM | COc1ccc(/C=C/C(=O)Nc2ccccc2C(=O)O)cc1OC [Tranilast] |
| > 45.8 µM | > 45.8 µM | O=c1n(CCCN2CCN(c3cccc(Cl)c3)CC2)nc2ccccn12 [Trazodone hydrochloride] |
| > 45.8 µM | > 45.8 µM | CC[N+](CC)(CC)CCC(O)(c1ccccc1)C1CCCCC1 (stereo unspecified) [Tridihexethyl chloride] |
| > 45.8 µM | > 45.8 µM | OC(CCN1CCCCC1)(c1ccccc1)C1CCCCC1 (stereo unspecified) [Trihexyphenidyl hydrochloride] |
| > 45.8 µM | > 45.8 µM | CC(CN(C)C)CN1c2ccccc2Sc2ccccc21 (stereo unspecified) [Trimeprazine tartrate] |
| > 45.8 µM | > 45.8 µM | COc1cc(C(=O)NCc2ccc(OCCN(C)C)cc2)cc(OC)c1OC [Trimethobenzamide hydrochloride] |
| > 45.8 µM | > 45.8 µM | CC(CN(C)C)CN1c2ccccc2CCc2ccccc21 (stereo unspecified) [Trimipramine maleate] |
| > 45.8 µM | > 45.8 µM | CN(C)CCN(Cc1ccccc1)c1ccccn1 [Tripelennamine citrate] |
| > 45.8 µM | > 45.8 µM | Cc1ccc(/C(=C\CN2CCCC2)c2ccccn2)cc1 [Triprolidine] |

Reference: the supplement of paper PMC12137928
